Entries after “also recorded” stand apart in the source; their conditions may differ.
What was measured:
[1] = Heparin affinity chromatography / heparin binding
Method: FIG. 1. Intact heparin-binding in the GST-FGF7 fusion product. Pure 200 μg GST-FGF7 and 10 ng ^125I-FGF7 (3×10^6 cpm) was mixed and subjected to heparin affinity chromatography on Pharmacia FPLC system. The GST-FGF7 was detected as a major peak (solid trace) by absorbance at 280 nm.
When fused at the N-terminal of FGF7 with a highly soluble and productive partner, Glutathione-S-transferase (GST), FGF7 was produced in bacteria at about 3.2 mg/ml yield with retained biological activity. Expressing alone has barely detectable level by immuno-reaction. Pure fusion protein was obtained by sequential chromatography on Glutathione (GSH) and Heparin affinity matrix (Luo et al. 1998, Lu et al. 1999, Jang et al. 1997). This is consistent with FGF7 crystal structure, which shown that the N-terminal of FGF7 is flexible and outside the compact core structure, and heparin-binding domain is apart from the flexible N-terminal. FGF7 itself was released by simply trypsin digestion that mimics an in vivo cleavage event (Luo et al. 1998, Lu et al. 1999, Jang et al. 1997).

FGFR2111b = target: T1, FGFR2111b (Homo sapiens, UniProt P21802); test: Binding to FGFR complex on the surface of insect cells
T1 construct: expressed in transfected cells; host or cells: insect cells
T1 sequence (P21802 22-822 isoform P21802-3 limits assumed): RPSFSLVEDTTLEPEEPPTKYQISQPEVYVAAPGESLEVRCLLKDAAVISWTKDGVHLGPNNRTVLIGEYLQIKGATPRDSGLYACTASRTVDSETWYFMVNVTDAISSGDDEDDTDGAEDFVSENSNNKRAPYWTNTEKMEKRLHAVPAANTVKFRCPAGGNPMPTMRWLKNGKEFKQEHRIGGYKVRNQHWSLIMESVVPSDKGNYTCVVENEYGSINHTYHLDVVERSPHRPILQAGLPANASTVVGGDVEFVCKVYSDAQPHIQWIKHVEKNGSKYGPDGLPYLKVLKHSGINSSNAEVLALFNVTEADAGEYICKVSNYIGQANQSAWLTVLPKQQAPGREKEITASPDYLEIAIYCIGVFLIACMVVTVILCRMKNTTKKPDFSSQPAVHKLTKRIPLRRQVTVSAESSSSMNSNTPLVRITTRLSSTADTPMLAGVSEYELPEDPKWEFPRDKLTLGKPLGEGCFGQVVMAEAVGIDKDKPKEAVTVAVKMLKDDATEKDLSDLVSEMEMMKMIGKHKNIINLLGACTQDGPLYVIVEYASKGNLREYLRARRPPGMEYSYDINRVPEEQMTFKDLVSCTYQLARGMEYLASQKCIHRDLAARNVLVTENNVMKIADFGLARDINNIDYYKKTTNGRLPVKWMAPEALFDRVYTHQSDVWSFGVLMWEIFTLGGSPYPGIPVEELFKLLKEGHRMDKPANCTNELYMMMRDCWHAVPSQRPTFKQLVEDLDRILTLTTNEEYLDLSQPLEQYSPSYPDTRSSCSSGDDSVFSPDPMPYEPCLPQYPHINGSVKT
Method: (§1) Finally, the recovery and activity of purified ^54Ser-FGF7 was tested after the removal of the GST portion by trypsin treatment from the heparin-immobilized GST-FGF7 recovered under the improved conditions employing 10 mM MgCl2 and the BL21 (DE3) pLysS strain. […] Results indicated a yield of pure ^54Ser-FGF7 of 4.8±0.5 mg per liter per OD600, which on a molar basis represents an average yield of 70 percent from the purified GST-FGF7 product.

mouse keratinocytes (MK) = test: Mitogenic activity in cultured mouse keratinocytes (MK); assay type: cell-based; settings: cells in culture
Method: as §1

factor Xa [2] = test: Neutralization assay, anti-Factor Xa activity of heparin; assay type: biochemical; settings: 0.9M NaCl eluted 6000 Da heparin fractions
Method: (§2) FIG. 4. Neutralization of anticoagulant activity of 0.9M NaCl eluted 6000 Da heparin (Sigma) fractions from GST-FGF7 column (closed squares) or Antithrombin column (closed triangles) by FGF7. a. 0.3, 1, 3, 10, 30 ug/ml FGF7 was used to neutralize anti-Factor Xa activity of 0.9M elute. b. 0.3, 1, 3, 10, 30 μg/ml FGF7 was used to neutralize anti-Factor IIa activity. The activity was expressed as percentage of Factor Xa or IIa activity in the presence of Antithrombin and FGF7, but absence of any heparin, subtracted by the remaining activity without FGF7 addition. […] Data represent average of at least three separate experiments.
(§3) Neutralization assay. 10 μl 1 μg/ml 0.9 M high affinity FGF7 or Antithrombin bound 6000 Da heparin (final concentration 100 ng/ml) (Sigma, St. Louis) and 10 μl various concentration of FGF7 were incubated with 10 μl 10 μg/ml Antithrombin solution. The rest of the assay was essentially followed the anti-Factor Xa or anti-Factor IIa assay described above. The activity was expressed as percentage of Factor Xa or IIa activity in the presence of Antithrombin and FGF7, but absence of any heparin, subtracted by the remaining activity without FGF7 addition.

Factor IIa = test: Neutralization assay, anti-Factor IIa activity of heparin; assay type: biochemical; settings: 0.9M NaCl eluted 6000 Da heparin fractions
Method: as §2, §3

[3] = cited from earlier work
FGF7 = target: T2, FGF7 (Rattus norvegicus, UniProt Q02195); test: Protease (pronase) protection assay with 125I-FGF7; assay type: biochemical; settings: 150 ng pronase, overnight 37° C., SDS-PAGE/autoradiography
T2 construct: GST (N, cleaved yes); made in house; host or cells: bacteria (E. coli)
T2 sequence (Q02195 55-194): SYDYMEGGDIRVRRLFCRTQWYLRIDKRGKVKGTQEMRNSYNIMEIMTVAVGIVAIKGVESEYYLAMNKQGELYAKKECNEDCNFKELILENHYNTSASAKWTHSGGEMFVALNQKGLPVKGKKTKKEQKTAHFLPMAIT
Method: Interaction of Heparin and Oligosaccharides with FGF. The antithrombin-binding decasaccharide (10-mer) was prepared, purified to homogeneity (28) and has the structure ΔUAp2S(1→4)-α-D-GlcNpS6S(1→4)-α-L-IdoAp(1→4)-α-D-GlcNpAc6S(1→4)-β-D-GlcAp(1→4)-α-D-GlcNpS3S6S(1→4)-α-L-IdoAp2S(1→4)-α-D-GlcNpS6S(1→4)-α-L-IdoAp2S(1→4)-α-D-GlcNpS6S. The tetradecasaccharide (14-mer) was prepared in >90% purity and characterized by multidimensional NMR spectroscopy (Toida et al. 1996). While the saccharide composition and the presence of an antithrombin-binding site pentasaccharide sequence could be confirmed, the precise placement of this sequence within the tetradecasaccharide could not be elucidated. The sequence was ΔUAp2S(1→4)-α-D-GlcNpS6S (1→4)-α-L-IdoAp2S(1→]n4)-α-D-GlcNpS6S(1→4)-α-LIdoAp(1→4)-α-D-GlcNpAc6S(1→4)-β-D-GlcAp(1→4)-α-D-GlcNpS3S6S(1→4)-α-L-IdoAp2S(1→[4)-α-D-GlcNpS6S(1→4)-α-L-IdoAp2S(1 43 ]m4)-α-D-GlcNS6S where n+m=3. The anti-factor Xa amydolytic activity of the hexasaccharide (6-mer), decasaccharide (10-mer) and tetradecasaccharide (14-mer) were 0, 3200 and 5800 units/mg, respectively, as determined against a low molecular weight heparin (Toida et al. 1996). Heparin was fractionated by antithrombin affinity chromatography (Kan et al. 1999). […] After incubation overnight at 37° C., SDS-PAGE and autoradiography were employed to quantify the remaining FGF. […]

factor Xa [4] = settings: determined against a low molecular weight heparin (Toida et al. 1996); cited from earlier work

GST-FGF1: human FGF1 fused to Glutathione-S-Transferase (GST)
heparin binding [1]: retain affinity for heparin similar to the unfused products | binding to / activation of the FGFR complex (FGFR2111b): Neither GST-FGF1 nor GST-FGF7 bind and activate the FGFR kinase complex | mitogenic activity (mouse keratinocytes (MK)): Neither GST-FGF1 nor GST-FGF7 bind and activate the FGFR kinase complex and exhibit mitogenic activity

GST-FGF7: fusion protein Glutathione-S-Transferase-Fibroblast Growth Factor 7, SEQ ID NO.4
neutralization of anti-Factor Xa activity compared with FGF7 (factor Xa [2]): same neutralization effects as FGF7 | neutralization of anti-Factor IIa activity compared with FGF7 (Factor IIa): same neutralization effects as FGF7 | heparin binding [1]: retain affinity for heparin similar to the unfused products; also recorded: fully active | sodium chloride concentration of elution from heparin affinity column ([1]; heparin affinity chromatography, FPLC (FIG. 1)): about 0.9 M | binding to / activation of the FGFR complex (FGFR2111b): Neither GST-FGF1 nor GST-FGF7 bind and activate the FGFR kinase complex; also recorded: inactive | mitogenic activity (mouse keratinocytes (MK)): Neither GST-FGF1 nor GST-FGF7 bind and activate the FGFR kinase complex and exhibit mitogenic activity; also recorded: inactive

PF4: Heparin-binding platelet factor 4, proposed scavenger for neutralizing the anticoagulant effect
adverse effect of administration to patients ([3]; humans (U.S. Pat. No. 5,801,063)): serious granulocytopenia

heparin
patients developing clinically significant osteoporosis ([3]; human, in vivo): half | patients with thrombocytopenia persisting for the duration of therapy ([3]; human, in vivo): approximately 5%

protamine
incidence of mild reactions ([3]; use of protamine in patients): ≤ 16%

ΔUAp2S(1→4)-α-D-GlcNpS6S (1→4)-α-L-IdoAp2S(1→]n4)-α-D-GlcNpS6S(1→4)-α-LIdoAp(1→4)-α-D-GlcNpAc6S(1→4)-β-D-GlcAp(1→4)-α-D-GlcNpS3S6S(1→4)-α-L-IdoAp2S(1→[4)-α-D-GlcNpS6S(1→4)-α-L-IdoAp2S(1 43 ]m4)-α-D-GlcNS6S where n+m=3 [tetradecasaccharide (14-mer)]
protection of FGF7 against protease (FGF7): able to protect | anti-factor Xa amydolytic activity (factor Xa [4]): 5800 units/mg

ΔUAp2S(1→4)-α-D-GlcNpS6S(1→4)-α-L-IdoAp(1→4)-α-D-GlcNpAc6S(1→4)-β-D-GlcAp(1→4)-α-D-GlcNpS3S6S(1→4)-α-L-IdoAp2S(1→4)-α-D-GlcNpS6S(1→4)-α-L-IdoAp2S(1→4)-α-D-GlcNpS6S [decasaccharide (10-mer)]
protection of FGF7 against protease (FGF7): able to protect | anti-factor Xa amydolytic activity (factor Xa [4]): 3200 units/mg

Source: patent US6812221B2, “FGF-affinity chromatography” (The Texas A&M University System, priority 2000, dated 2004)
